# Measured values published in ChEMBL document CHEMBL1201862, “PubChem BioAssay data set” (2004).
# Calls of active or inactive are those of the source.
# Columns and labels:
# Caspase-3 = molecular target: T1, Caspase-3 (Homo sapiens, UniProt P42574); type: functional;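 note: Dose-response selectivity test against caspase-3 for candidate inhibitors of sentrin-specific proteases (SENPs)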
# T1 sequence (P42574 whole entry): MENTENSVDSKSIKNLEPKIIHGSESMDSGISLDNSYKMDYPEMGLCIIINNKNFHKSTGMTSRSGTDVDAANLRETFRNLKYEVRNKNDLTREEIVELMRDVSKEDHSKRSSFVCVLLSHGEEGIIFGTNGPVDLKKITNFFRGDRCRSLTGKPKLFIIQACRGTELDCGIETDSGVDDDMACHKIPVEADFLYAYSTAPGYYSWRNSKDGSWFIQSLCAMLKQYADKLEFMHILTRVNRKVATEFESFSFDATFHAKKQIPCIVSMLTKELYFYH
# [1] = molecular target: T2, Sentrin-specific protease 7 (Homo sapiens, UniProt Q9BQF6); type: functional;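 note: Luminescence-based dose-response confirmation of ultra-high-throughput screening hits, measuring inhibition of SENP7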
# T2 sequence (Q9BQF6 whole entry): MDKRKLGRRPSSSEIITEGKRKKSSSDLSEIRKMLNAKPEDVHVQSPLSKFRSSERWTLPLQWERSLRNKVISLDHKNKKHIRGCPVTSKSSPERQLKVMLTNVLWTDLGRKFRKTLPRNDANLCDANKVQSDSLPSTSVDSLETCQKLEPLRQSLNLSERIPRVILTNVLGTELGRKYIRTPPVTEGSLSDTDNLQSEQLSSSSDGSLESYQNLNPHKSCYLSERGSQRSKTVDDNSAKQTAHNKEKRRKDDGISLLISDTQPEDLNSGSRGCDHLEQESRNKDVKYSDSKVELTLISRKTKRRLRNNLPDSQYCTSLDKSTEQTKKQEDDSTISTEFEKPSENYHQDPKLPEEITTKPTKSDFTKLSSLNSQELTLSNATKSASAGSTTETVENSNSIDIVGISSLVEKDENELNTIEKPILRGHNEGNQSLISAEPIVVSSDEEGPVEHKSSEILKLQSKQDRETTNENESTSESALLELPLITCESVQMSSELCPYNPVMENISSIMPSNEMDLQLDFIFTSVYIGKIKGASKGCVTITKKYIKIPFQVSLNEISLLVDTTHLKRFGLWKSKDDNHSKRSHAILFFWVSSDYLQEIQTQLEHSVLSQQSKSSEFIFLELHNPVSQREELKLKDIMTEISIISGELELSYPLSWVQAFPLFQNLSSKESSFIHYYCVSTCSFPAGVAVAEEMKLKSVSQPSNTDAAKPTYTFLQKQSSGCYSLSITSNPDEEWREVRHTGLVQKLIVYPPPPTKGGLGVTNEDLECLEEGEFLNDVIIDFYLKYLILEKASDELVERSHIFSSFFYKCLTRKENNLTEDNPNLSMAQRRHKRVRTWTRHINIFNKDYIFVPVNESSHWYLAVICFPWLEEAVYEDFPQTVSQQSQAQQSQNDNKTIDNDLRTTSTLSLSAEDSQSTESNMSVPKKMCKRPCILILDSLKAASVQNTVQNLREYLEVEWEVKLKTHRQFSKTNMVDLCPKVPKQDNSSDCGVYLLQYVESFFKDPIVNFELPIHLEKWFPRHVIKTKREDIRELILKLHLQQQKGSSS
# [2] = molecular target: T3, Sentrin-specific protease 6 (Homo sapiens, UniProt Q9GZR1); type: functional;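 note: Luminescence-based dose-response confirmatory assay of SENP6 inhibition, following up an ultra-high-throughput screen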
# T3 sequence (Q9GZR1 whole entry): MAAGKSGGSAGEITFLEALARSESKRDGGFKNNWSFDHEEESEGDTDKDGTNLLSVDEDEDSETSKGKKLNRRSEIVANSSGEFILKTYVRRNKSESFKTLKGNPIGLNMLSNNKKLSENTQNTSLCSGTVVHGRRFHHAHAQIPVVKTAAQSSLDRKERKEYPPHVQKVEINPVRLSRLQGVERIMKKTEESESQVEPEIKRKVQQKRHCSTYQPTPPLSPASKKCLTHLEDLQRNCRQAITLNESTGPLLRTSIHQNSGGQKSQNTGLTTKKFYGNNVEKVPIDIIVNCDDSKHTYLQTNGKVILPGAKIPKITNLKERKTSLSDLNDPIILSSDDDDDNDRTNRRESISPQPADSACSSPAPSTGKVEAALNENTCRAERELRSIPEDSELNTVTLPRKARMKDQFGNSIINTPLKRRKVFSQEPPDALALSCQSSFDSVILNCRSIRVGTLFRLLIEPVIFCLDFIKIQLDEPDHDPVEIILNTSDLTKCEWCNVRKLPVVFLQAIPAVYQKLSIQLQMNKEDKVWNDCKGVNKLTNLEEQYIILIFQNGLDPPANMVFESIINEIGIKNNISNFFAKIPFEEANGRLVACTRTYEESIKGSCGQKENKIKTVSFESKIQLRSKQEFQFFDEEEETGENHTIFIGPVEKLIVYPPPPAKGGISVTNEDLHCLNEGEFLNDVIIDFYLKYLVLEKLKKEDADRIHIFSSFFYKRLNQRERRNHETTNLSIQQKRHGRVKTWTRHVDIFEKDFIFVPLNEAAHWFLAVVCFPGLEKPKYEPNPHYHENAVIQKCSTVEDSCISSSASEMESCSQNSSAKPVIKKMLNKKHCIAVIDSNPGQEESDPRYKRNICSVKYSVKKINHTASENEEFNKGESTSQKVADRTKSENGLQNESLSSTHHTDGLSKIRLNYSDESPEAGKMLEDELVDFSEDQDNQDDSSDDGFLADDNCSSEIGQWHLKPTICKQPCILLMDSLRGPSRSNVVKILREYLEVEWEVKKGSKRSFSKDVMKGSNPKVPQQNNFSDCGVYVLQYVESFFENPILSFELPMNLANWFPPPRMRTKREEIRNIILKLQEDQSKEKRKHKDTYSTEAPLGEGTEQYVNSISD
# [3] = molecular target: T4, Sentrin-specific protease 8 (Homo sapiens, UniProt Q96LD8); type: functional;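 note: luminescence read-out of SENP8 inhibition, dose-response confirmation following an ultra-high-throughput screen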
# T4 sequence (Q96LD8 whole entry): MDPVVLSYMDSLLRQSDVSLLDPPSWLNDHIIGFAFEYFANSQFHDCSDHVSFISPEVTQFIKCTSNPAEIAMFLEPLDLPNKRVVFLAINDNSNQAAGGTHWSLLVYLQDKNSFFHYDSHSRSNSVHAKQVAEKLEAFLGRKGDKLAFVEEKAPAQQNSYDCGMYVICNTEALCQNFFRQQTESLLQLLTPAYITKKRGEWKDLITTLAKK
# [4] = reduction of Shn3 3'UTR-driven luciferase in osteoblasts – cell-based, Clone20 osteoblasts, firefly luciferase, cherry-picked, dose response (AID 624132); type: functional;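 note: firefly luciferase luminescence from reporter carrying the Shn3 3'UTR in osteoblasts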
# [5] = loss of viability in HepG2 cells – cell-based, CellTiter-Glo, cherry-picked, cytotoxicity control for Shn3 inhibitor project, dose response (AID 624134); type: functional
# [6] = non-specific 3'UTR reporter inhibition in Clone20-Shn3RL – cell-based, Renilla luciferase, cherry-picked, counter-screen for Shn3 inhibitor project, dose response (AID 624133); type: functional
# [7] = tested on: Streptococcus sp. 'group A'; test: Streptococcus pyogenes SK(-)GAS viability under kanamycin – luminescence, BacTiterGlo, confirmation, counter-screen for streptokinase expression inhibitor project, dose response (AID 1900); type: functional, organism-based
# Streptokinase A = molecular target: T5, Streptokinase A (Streptococcus pyogenes serotype M1, UniProt P10520); test: viability-normalized secreted streptokinase activity reduction – plasminogen activation absorbance, OD405, dose response (AID 1914); type: functional, Streptococcus pyogenes M1 GAS;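 note: secreted streptokinase activity via plasminogen activation per viability signal from cell pellet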
# T5 sequence (P10520 whole entry): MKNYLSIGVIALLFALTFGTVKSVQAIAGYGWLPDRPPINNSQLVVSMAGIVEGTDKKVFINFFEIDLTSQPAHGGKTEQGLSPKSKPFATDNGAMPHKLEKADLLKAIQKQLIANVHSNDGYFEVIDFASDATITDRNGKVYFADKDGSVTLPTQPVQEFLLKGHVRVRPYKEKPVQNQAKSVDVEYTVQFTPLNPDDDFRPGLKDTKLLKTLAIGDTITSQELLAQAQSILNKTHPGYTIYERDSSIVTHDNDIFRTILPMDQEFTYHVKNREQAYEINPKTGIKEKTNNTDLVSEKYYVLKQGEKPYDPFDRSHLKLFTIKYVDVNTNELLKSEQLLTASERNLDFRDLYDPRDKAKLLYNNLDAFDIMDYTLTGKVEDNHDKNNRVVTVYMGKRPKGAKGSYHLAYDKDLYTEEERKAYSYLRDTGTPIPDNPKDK
# Streptococcus = test: GAS UMAA2166 growth inhibition – luminescence, BacTiterGlo, counter-screen for streptokinase expression inhibitor project, dose response (AID 1915); type: functional, organism-based;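 note: potency for reduction of bacterial viability or growth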
# [8] = luciferase reporter signal suppression in cells – H4 neuroglioma cells, luminescence, dose response (AID 1990); type: functional, cell-based
# BJ [9] = test: BJ-TERT fibroblast viability loss – cell-based, RAS-independent, luminescence, dose response (AID 1933); type: functional; conditions: Homo sapiens
# [10] = Luminescence Cell-Based Dose Response HTS to Identify Inhibitors of 5'UTR Stem-Loop Driven Prion Protein mRNA Translation in H4 Neuroglioblastoma Cells. [Related pubchem assays: 1827 (Project Summary), 1813 (Primary HTS)]; type: functional
# [11] = alpha-synuclein stem-loop luciferase translation blockers – H4 neuroglioma cells, luminescence, confirmation (AID 1988); type: functional, cell-based
# BJ [12] = test: cells; type: functional, cell-based; conditions: Homo sapiens
# BJ [13] = test: BJ-TERT-LT-ST fibroblast viability loss – cell-based, RAS-independent, luminescence, dose response (AID 1935); type: functional; conditions: Homo sapiens;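 note: BJ fibroblasts immortalized with TERT plus LT and ST oncogenes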
# [14] = DRD fibroblast viability loss – cell-based, non-viral oncogenic, luminescence, dose response (AID 1934); type: functional; conditions: Homo sapiens
# BJ [15] = test: growth inhibition of engineered Ras-driven BJ cells – cell-based, alamar blue fluorescence, cherrypicked samples, dose response (AID 2631); type: functional; conditions: Homo sapiens;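 note: confirmatory dose-response assay in RAS-dependent BJ fibroblasts engineered with TERT, LT and ST, with cytotoxicity read by fluorescence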
# [16] = HIV-1 AD8 envelope cell-cell fusion blockers – cherry-pick, dose response (AID 652062); type: functional, cell-based;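 note: luciferase signal from cell-cell fusion driven by HIV-1 clade B AD8 Env; potency is for inhibitors of fusion seen as a drop in luminescence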
# [17] = A549 cell cytotoxicity, dose response, cytotoxicity control, plate reader, cherry-pick, antagonist series (AID 743412); type: functional, cell-based
# [18] = toxicity toward HepG2 liver cells – cell-based, plate reader, cherry-pick, antagonist series, cytotoxicity control, dose response (AID 743416); type: functional
# [19] = blockers of bursicon-stimulated LGR2 cAMP reporter – cell-based, HEK293, CRE-luciferase reporter, cherry pick, set 2, dose response (AID 743343); type: functional;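 note: transfected cells were stimulated with diluted bursicon conditioned medium after compound addition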
# [20] = blockade of melanocortin 4 receptor signaling – cell-based, plate reader, cherry pick, counter-screen for LGR2 antagonist project, dose response (AID 743444); type: functional;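 note: transfected HEK 293 cells stimulated with alpha-MSH peptide; potency of inhibitors of the alpha-MSH evoked signal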
# [21] = viability loss in HEK293 cells – cell-based, plate reader, cherry-picked samples, cytotoxicity control, dose response (AID 743446); type: functional
SMILES,IC50 (Caspase-3),IC50 [1],IC50 [2],IC50 [3],AC50 [4],AC50 [5],AC50 [6],also measured
N#Cc1ccsc1NC(=O)CSc1nnnn1-c1ccc(O)cc1,20.6 µM (active),10.3 µM (active),30.5 µM (active),36.8 µM (active),,,,
COc1ccc(NC(=O)CSc2ncccc2C(=O)OC(C)C)cc1OC,,,,,4.1 µM (active),41.9 µM (active),1.54 µM (active),
COc1ccc(-c2nc(NC(=O)C3CC(=O)N(c4ccc5c(c4)OCCO5)C3)sc2C)cc1 (stereo not given),,,,,5.24 µM (active),47.3 µM (active),13.4 µM (active),EC50 [7]: 21.7 µM (active); EC50 (Streptokinase A): > 150 µM (not active); EC50 (Streptococcus): 63.6 µM (active)
CCOc1ccc(CC(=O)Nc2ccc(NC(=O)c3ccco3)cc2)cc1OCC,,,,,,,,EC50 [8]: 11 µM (active); EC50 (BJ [9]): > 150 µM (not active); EC50 [10]: 6.05 µM (active); EC50 [11]: 8.44 µM (active); EC50 (BJ [12]): 2.55 µM (active); EC50 (BJ [13]): 9.89 µM (inconclusive); EC50 [14]: > 150 µM (not active); EC50 (BJ [15]): > 66.7 µM (inactive)
CCN(C(=O)C1CCN(c2nc(-c3ccc(OC)cc3)no2)CC1)c1ccc(OC)cc1,,,,,3.17 µM (active),62.5 µM (active),11.8 µM (active),
Cc1cccc(-n2ncc3c(N4CCC(C)CC4)ncnc32)c1,19.5 µM (active),7.97 µM (active),21.9 µM (active),27.9 µM (active),,,,
CC(=O)c1ccccc1OCCOCCOCCOc1ccccc1C(C)=O,,,,,,,,EC50 [8]: > 120 µM (not active); EC50 (BJ [9]): 27 µM (active); EC50 [11]: > 120 µM (not active); EC50 (BJ [12]): > 150 µM (not active); EC50 (BJ [13]): > 150 µM (inconclusive); EC50 [14]: > 150 µM (not active); EC50 (BJ [15]): > 133 µM (inactive)
O=C(CSc1ccccn1)NCc1ccc2c(c1)OCO2,,,,,,,,EC50 (BJ [15]): > 133 µM (inactive)
CC1CN(S(=O)(=O)c2cc(C(=O)NCCC3=CCCCC3)ccc2Cl)CC(C)O1 (stereo not given),,,,,,,,AC50 [16]: 7.96 µM (active)
Oc1nc2ccccc2n1C1CCN(C(c2cccs2)c2nnnn2Cc2ccccc2)CC1 (stereo not given),,,,,2.98 µM (active),> 70 µM (inactive),6.11 µM (active),AC50 [17]: 13.7 µM (active); AC50 [18]: 44.4 µM (active); AC50 [19]: 2.74 µM (active); AC50 [20]: 1.76 µM (active); AC50 [21]: 29.8 µM (active)
C/C(=N\Nc1ccc([N+](=O)[O-])cc1)c1ccco1,18.4 µM (active),6.51 µM (active),10.6 µM (active),73.8 µM (active),,,,
C/C(=N\OC(=O)c1ccc(Br)cc1)c1ccccn1,1.26 µM (active),1.01 µM (active),1.31 µM (active),2.43 µM (active),,,,
COc1cccc(C(=O)Oc2ccc(/C=N/Nc3ccc(C(=O)O)cc3)cc2OC)c1,74.2 µM (active),12.3 µM (active),14.3 µM (active),17.1 µM (active),,,,EC50 [7]: 5 µM (active); EC50 (Streptokinase A): > 150 µM (not active); EC50 (Streptococcus): 19 µM (active)
